Test results as given in patent US7625891B2, “Heterocylic antiviral compounds” (Roche Palo Alto LLC, priority 2007, dated 2009).
pIC50: −log10 of the molar value.

Legend:
L1.2hCCR5 cells = experiment: Chemotaxis assay; format: cell-based; details: Homo sapiens; Inhibition of RANTES stimulated chemotaxis
Source text: The chemotaxis assay is a functional assay which measures the ability of a non-adherent cell line expressing human CCR5 receptor to migrate across a membrane in response to either test compounds or natural attractant ligand(s) (i.e., RANTES, MIP-1β). Generally, chemotaxis assays monitor the directional movement or migration of a suitable cell (such as a leukocyte (e.g., lymphocyte, eosinophil, basophil)) into or through a barrier (e.g., endothelium, a permeable filter membrane), toward, from a first surface of the barrier toward an opposite second surface containing attractant ligands. Membranes or filters provide convenient barriers to monitor the directional movement or migration of a suitable cell into or through a filter, toward increased levels of an attractant. In some assays, the membrane is coated with a substance to facilitate adhesion, such as ICAM-1, fibronectin or collagen. Such assays provide an in vitro approximation of leukocyte “homing”. […] The filter is then removed and the density of the cells that have migrated to the bottom wells is detected using CyQUANT^R cell proliferation assay kit (Invitrogen) and the Spectra MAX GeminiXS plate reader (Molecular Devices) according to the manufacturers' instructions. Using the fluorescence measurements the percent migration is determined by % migration=[1−(max−obs)/(max−min)]×100. […] This is calculated with Excel Fit.

CCR5 = CCR5 (Homo sapiens, UniProt P51681); experiment: Human CCR5 receptor-ligand binding assay (125I RANTES, CHO-Gα16-hCCR5 cells); parameters: expressed in transfected cells; details: specific 125I RANTES binding, CHO-Gα16-hCCR5 cells; read-out: IC50
Method: The construct was transfected into CHO-Gα16 cells by using Fugene Reagent (Roche).
Adherent cells in […] tissue culture flask (ca. 90% confluent) were harvested using 1 mM EDTA in PBS (phosphate-buffered saline) without Ca^2+ and Mg^2+. Cells were washed twice with PBS containing no Ca^2+ and Mg^2+.
Eighty μl CHO-Gα16-hCCR5 (1×10^6/mL) cells were added to 96 well plates.
The compound dilutions were made in PBS, 1% BSA. Total reaction volume was 100 μl per well. The test compounds were added to the cells prior to the addition of radioligand.
After incubation, the cells were harvested onto GF/C filter plates using Packard cell harvester. Filters were pretreated with 0.3% PEI/0.2% BSA for 30 min. The filter plate was washed rapidly 5 times with 25 mM HEPES, 500 mM NaCl, 1 mM CaCl2 and 5 mM MgCl2 adjusted to pH 7.1. Plates were dried in oven (70° C.) for 20 min, added with 40 μl scintillation fluid and sealed with Packard TopSeal-A. Packard Top Count was used to measure of the radioactivity for 1 min per well.
Total binding was determined with control wells added with radioisotope and buffer and the non-specific binding was determined using an excess cold RANTES to some of the control wells. Specific binding was determined by subtracting the non-specific form total binding. […] IC50 values were determined using varying concentrations of the test ligand in triplicates and the data was analyzed using GraphPad Prism (GraphPad, San Diego, Calif.).

Sequence of CCR5 (P51681 whole entry): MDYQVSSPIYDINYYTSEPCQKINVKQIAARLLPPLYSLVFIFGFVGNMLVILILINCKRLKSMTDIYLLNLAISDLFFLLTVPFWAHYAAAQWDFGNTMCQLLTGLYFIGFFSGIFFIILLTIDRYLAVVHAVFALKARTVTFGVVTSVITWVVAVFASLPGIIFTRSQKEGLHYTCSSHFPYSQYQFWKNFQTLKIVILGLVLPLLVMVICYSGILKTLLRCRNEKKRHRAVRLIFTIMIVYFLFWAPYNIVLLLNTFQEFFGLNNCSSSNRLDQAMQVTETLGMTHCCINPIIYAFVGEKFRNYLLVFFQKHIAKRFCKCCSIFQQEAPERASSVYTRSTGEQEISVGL

CCCCC1CN(C[C@H]2CC[C@@H](OC)CC2)C(=O)OC12CCN(C1(C)CCN(C(=O)c3c(C)ncnc3C)CC1)CC2 (relative stereo) [Compound I-2, 5-Butyl-9-[1-(4,6-dimethyl-pyrimidine-5-carbonyl)-4-methyl-piperidin-4-yl]-3-(cis-4-methoxy-cyclohexylmethyl)-1-oxa-3,9-diaza-spiro[5.5]undecan-2-one]
pIC50 (L1.2hCCR5 cells): 6.63
pIC50 (CCR5): 7.79
